Laboratory results published in patent publication US12252524B2, “GIP/GLP1 co-agonist compounds” (Eli Lilly and Company, priority 2018, dated 2025).
Numbered stars: 1 amine (or outer) side, 2 acyl side, 3 side chain; on linkers, the order of the positions; unused ones are H or OH. Square brackets hold non-standard residues; d marks the D form. Side chains are listed from the residue outwards. Peptide text beside a SMILES is read from it. * marks the point of attachment. C20 diacid = O=C(O)CCCCCCCCCCCCCCCCCCC(=O)*; αMePhe(2-F) = C[C@](N)(Cc1ccccc1F)C(=O)O; γGlu = O=C(O)[C@H](CCC(=O)[*:2])N[*:1]; 4Pal = N[C@@H](Cc1ccncc1)C(=O)O; αMeL = CC(C)C[C@](C)(N)C(=O)O; AEEA = NCCOCCOCC(=O)O; Aib = CC(C)(N)C(=O)O

Columns and labels:
[1] = target: T1, gastric inhibitory peptide receptor (GIPR) (Homo sapiens, UniProt P48546); assay: cAMP pharmacological functional assay in presence of casein, hGIPR; format: cell-based; details: HEK293 cells expressing hGIPR, 0.1% Casein, geometric mean; read-out: hGIPR cAMP Rel EC50 nM (SEM, n)
T1 sequence (P48546 22-466): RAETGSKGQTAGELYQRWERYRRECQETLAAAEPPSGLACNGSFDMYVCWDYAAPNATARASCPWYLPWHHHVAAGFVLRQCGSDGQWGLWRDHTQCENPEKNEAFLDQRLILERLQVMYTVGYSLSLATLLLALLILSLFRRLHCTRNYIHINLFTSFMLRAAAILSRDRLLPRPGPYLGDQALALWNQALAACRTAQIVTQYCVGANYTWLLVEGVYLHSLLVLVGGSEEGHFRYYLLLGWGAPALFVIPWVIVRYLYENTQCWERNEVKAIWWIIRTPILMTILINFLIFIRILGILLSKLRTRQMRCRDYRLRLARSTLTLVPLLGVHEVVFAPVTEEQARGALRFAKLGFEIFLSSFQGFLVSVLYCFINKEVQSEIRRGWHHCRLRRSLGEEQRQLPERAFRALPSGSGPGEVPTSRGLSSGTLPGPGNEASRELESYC

human GLP-1R = human GLP-1R (Homo sapiens, UniProt P43220); assay: [125I]-GLP-1 binding (SPA), human GLP-1 receptor; parameters: expressed in transfected cells; crude membranes; details: read-out: hGLP1R Ki, (nM) (SEM, n)
How it was run: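 Membranes: hypotonic lysis (50 mM Tris HCl, pH 7.5, protease inhibitors), Potter-Elvehjem homogenization, high-speed pellet (35000×g 1 h or 25000×g 30 min, 4° C.). Buffer: 25 mM HEPES pH 7.4, 2.5 mM CaCl2, 1 mM MgCl2. Four-parameter IC50 fit; Ki as geometric mean ± SEM.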

[2] = target: human GLP-1 receptor (GLP-1R) (Homo sapiens, UniProt P43220); assay: cAMP pharmacological functional assay in presence of casein, hGLP-1R; format: cell-based; details: HEK293 cells expressing hGLP-1R, 0.1% Casein, geometric mean; read-out: hGLP1R cAMP Rel EC50 nM (SEM, n)
human GIP receptor = target: T2, human GIP receptor (Homo sapiens, UniProt P48546); assay: [125I]-GIP binding (SPA), human GIP receptor; details: read-out: hGIPR Ki, nM (SEM, n)
T2 construct: expressed in transfected cells; crude membranes
T2 sequence (P48546 22-466): T1 sequence (P48546 22-466)

human Gcg receptor = target: T3, human Gcg receptor (Homo sapiens, UniProt P47871); assay: [125I]-Glucagon binding (SPA), human Gcg receptor; details: read-out: hGLcgR Ki, nM (SEM, n)
T3 construct: expressed in transfected cells; crude membranes
How it was run: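 Cell pellets were lysed in hypotonic Tris buffer, pH 7.5, homogenized, and spun at low then high speed to give crude membranes. Ki was derived from the fitted IC50.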

T3 sequence (P47871 26-477): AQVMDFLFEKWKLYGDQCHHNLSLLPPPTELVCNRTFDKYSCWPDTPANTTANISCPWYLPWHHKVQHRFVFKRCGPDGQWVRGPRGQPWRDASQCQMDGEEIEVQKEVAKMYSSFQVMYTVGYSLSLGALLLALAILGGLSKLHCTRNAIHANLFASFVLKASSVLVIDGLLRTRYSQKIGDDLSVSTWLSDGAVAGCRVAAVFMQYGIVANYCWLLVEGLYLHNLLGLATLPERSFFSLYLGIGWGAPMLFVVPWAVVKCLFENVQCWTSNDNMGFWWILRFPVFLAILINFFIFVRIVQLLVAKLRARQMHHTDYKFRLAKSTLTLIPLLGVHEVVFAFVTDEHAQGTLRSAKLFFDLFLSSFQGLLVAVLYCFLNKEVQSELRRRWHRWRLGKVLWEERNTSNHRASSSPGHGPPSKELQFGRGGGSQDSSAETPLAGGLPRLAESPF
Chain of human GLP-1R (P43220 24-463): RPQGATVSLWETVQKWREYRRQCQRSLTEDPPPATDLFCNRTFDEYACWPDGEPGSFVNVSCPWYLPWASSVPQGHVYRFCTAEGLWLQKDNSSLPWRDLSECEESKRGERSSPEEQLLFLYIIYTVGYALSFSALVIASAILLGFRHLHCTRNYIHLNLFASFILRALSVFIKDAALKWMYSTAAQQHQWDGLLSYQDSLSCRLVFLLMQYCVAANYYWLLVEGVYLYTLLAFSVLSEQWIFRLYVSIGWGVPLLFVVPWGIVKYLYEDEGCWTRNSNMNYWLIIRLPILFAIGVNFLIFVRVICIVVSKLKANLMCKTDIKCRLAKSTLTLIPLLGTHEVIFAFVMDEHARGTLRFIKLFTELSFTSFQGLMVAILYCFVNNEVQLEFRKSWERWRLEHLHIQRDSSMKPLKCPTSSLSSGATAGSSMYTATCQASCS
Chain of human GLP-1 receptor (GLP-1R) (P43220 24-463): as above

SMILES	EC50 [1] [nM]	Ki (human GLP-1R) [nM]	EC50 [2] [nM]	Ki (human GIP receptor) [nM]	Ki (human Gcg receptor) [nM]
CC[C@H](C)[C@H](NC(=O)[C@H](CC(C)C)NC(=O)[C@H](Cc1ccc(O)cc1)NC(=O)[C@@H](CCC(=O)O)NC(=O)[C@@H](NC(=O)[C@H](Cc1ccccc1)NC(=O)[C@@H](NC(=O)C(C)(C)NC(=O)[C@H](CCC(N)=O)NC(=O)[C@H](C)NC(=O)[C@H](CCCCNC(=O)COCCOCCNC(=O)COCCOCCNC(=O)CC[C@H](NC(=O)CCCCCCCCCCCCCCCCCCC(=O)O)C(=O)O)NC(=O)[C@H](CCC(=O)O)NC(=O)[C@H](CC(=O)O)NC(=O)[C@H](CC(C)C)NC(=O)[C@](C)(CC(C)C)NC(=O)[C@@H](NC(=O)[C@H](CO)NC(=O)C(C)(C)NC(=O)[C@H](CC(=O)O)NC(=O)[C@H](CO)NC(=O)[C@@H](NC(=O)[C@](C)(Cc1ccccc1F)NC(=O)[C@@H](NC(=O)CNC(=O)[C@H](CCC(=O)O)NC(=O)C(C)(C)NC(=O)[C@@H](N)Cc1ccc(O)cc1)[C@@H](C)O)[C@@H](C)O)[C@@H](C)CC)[C@@H](C)O)[C@@H](C)CC)C(=O)N[C@@H](CCC(=O)O)C(=O)NCC(=O)NCC(=O)N1CCC[C@H]1C(=O)N[C@@H](CO)C(=O)N[C@@H](CO)C(=O)NCC(=O)N[C@@H](C)C(=O)N1CCC[C@H]1C(=O)N1CCC[C@H]1C(=O)N1CCC[C@H]1C(=O)N[C@@H](CO)C(N)=O [Example 160] (H-Y[Aib]EGT[αMePhe(2-F)]TSD[Aib]SI[αMeL]LDEK([AEEA-AEEA-γGlu-C20 diacid])AQ[Aib]TFI[dE]YLIEGGPSSGAPPPS-NH2)	21	14.4	0.0461	5.98	> 1060
CC[C@H](C)[C@H](NC(=O)[C@H](CC(C)C)NC(=O)[C@H](Cc1ccc(O)cc1)NC(=O)[C@H](CCC(=O)O)NC(=O)[C@@H](NC(=O)[C@H](Cc1ccccc1)NC(=O)[C@H](CCC(=O)O)NC(=O)C(C)(C)NC(=O)[C@H](CCC(N)=O)NC(=O)[C@H](C)NC(=O)[C@H](CCCCNC(=O)COCCOCCNC(=O)COCCOCCNC(=O)CC[C@H](NC(=O)CCCCCCCCCCCCCCCCCCC(=O)O)C(=O)O)NC(=O)[C@H](CCC(=O)O)NC(=O)[C@H](CC(=O)O)NC(=O)[C@H](CC(C)C)NC(=O)[C@](C)(CC(C)C)NC(=O)[C@@H](NC(=O)[C@H](CO)NC(=O)[C@H](Cc1ccc(O)cc1)NC(=O)[C@H](CC(=O)O)NC(=O)[C@H](CO)NC(=O)[C@@H](NC(=O)[C@](C)(Cc1ccccc1F)NC(=O)[C@@H](NC(=O)CNC(=O)[C@H](CCC(=O)O)NC(=O)C(C)(C)NC(=O)[C@@H](N)Cc1c[nH]cn1)[C@@H](C)O)[C@@H](C)O)[C@@H](C)CC)[C@@H](C)CC)C(=O)N[C@@H](CCC(=O)O)C(=O)NCC(=O)NCC(=O)N1CCC[C@H]1C(=O)N[C@@H](CO)C(=O)N[C@@H](CO)C(=O)NCC(=O)N[C@@H](C)C(=O)N1CCC[C@H]1C(=O)N1CCC[C@H]1C(=O)N1CCC[C@H]1C(=O)N[C@@H](CO)C(N)=O [Example 163] (H-H[Aib]EGT[αMePhe(2-F)]TSDYSI[αMeL]LDEK([AEEA-AEEA-γGlu-C20 diacid])AQ[Aib]EFIEYLIEGGPSSGAPPPS-NH2)	0.121	10.8	0.0316	0.116	117
CC[C@H](C)[C@H](NC(=O)[C@H](CC(C)C)NC(=O)[C@H](Cc1ccc(O)cc1)NC(=O)C(C)(C)NC(=O)[C@@H](NC(=O)[C@H](Cc1ccccc1)NC(=O)[C@H](CCC(=O)O)NC(=O)C(C)(C)NC(=O)[C@H](CCC(N)=O)NC(=O)[C@H](C)NC(=O)[C@H](CCCCNC(=O)COCCOCCNC(=O)COCCOCCNC(=O)CC[C@H](NC(=O)CCCCCCCCCCCCCCCCCCC(=O)O)C(=O)O)NC(=O)[C@H](CCC(=O)O)NC(=O)[C@H](CC(=O)O)NC(=O)[C@H](CC(C)C)NC(=O)[C@](C)(CC(C)C)NC(=O)[C@@H](NC(=O)[C@H](CO)NC(=O)[C@H](Cc1ccncc1)NC(=O)[C@H](CC(=O)O)NC(=O)[C@H](CO)NC(=O)[C@@H](NC(=O)[C@](C)(Cc1ccccc1F)NC(=O)[C@@H](NC(=O)CNC(=O)[C@H](CCC(=O)O)NC(=O)C(C)(C)NC(=O)[C@@H](N)Cc1ccc(O)cc1)[C@@H](C)O)[C@@H](C)O)[C@@H](C)CC)[C@@H](C)CC)C(=O)N[C@@H](CCC(=O)O)C(=O)NCC(=O)NCC(=O)N1CCC[C@H]1C(=O)N[C@@H](CO)C(=O)N[C@@H](CO)C(=O)NCC(=O)N[C@@H](C)C(=O)N1CCC[C@H]1C(=O)N1CCC[C@H]1C(=O)N1CCC[C@H]1C(=O)N[C@@H](CO)C(N)=O [Example 189] (H-Y[Aib]EGT[αMePhe(2-F)]TSD[4Pal]SI[αMeL]LDEK([AEEA-AEEA-γGlu-C20 diacid])AQ[Aib]EFI[Aib]YLIEGGPSSGAPPPS-NH2)	0.0775	8.81	0.0608	0.128	146
CC[C@H](C)[C@H](NC(=O)[C@H](CC(C)C)NC(=O)[C@H](Cc1ccc(O)cc1)NC(=O)[C@@H](CCC(=O)O)NC(=O)[C@@H](NC(=O)[C@H](Cc1ccccc1)NC(=O)[C@H](CCC(=O)O)NC(=O)C(C)(C)NC(=O)[C@H](CCC(N)=O)NC(=O)[C@H](C)NC(=O)[C@H](CCCCNC(=O)COCCOCCNC(=O)COCCOCCNC(=O)CC[C@H](NC(=O)CCCCCCCCCCCCCCCCCCC(=O)O)C(=O)O)NC(=O)[C@H](CCC(=O)O)NC(=O)[C@H](CC(=O)O)NC(=O)[C@H](CC(C)C)NC(=O)[C@](C)(CC(C)C)NC(=O)[C@@H](NC(=O)[C@H](CO)NC(=O)[C@@H](NC(=O)[C@H](CC(=O)O)NC(=O)[C@H](CO)NC(=O)[C@@H](NC(=O)[C@](C)(Cc1ccccc1F)NC(=O)[C@@H](NC(=O)CNC(=O)[C@H](CCC(=O)O)NC(=O)C(C)(C)NC(=O)[C@@H](N)Cc1ccc(O)cc1)[C@@H](C)O)[C@@H](C)O)C(C)C)[C@@H](C)CC)[C@@H](C)CC)C(=O)N[C@@H](CCC(=O)O)C(=O)NCC(=O)NCC(=O)N1CCC[C@H]1C(=O)N[C@@H](CO)C(=O)N[C@@H](CO)C(=O)NCC(=O)N[C@@H](C)C(=O)N1CCC[C@H]1C(=O)N1CCC[C@H]1C(=O)N1CCC[C@H]1C(=O)N[C@@H](CO)C(N)=O [Example 191] (H-Y[Aib]EGT[αMePhe(2-F)]TSDVSI[αMeL]LDEK([AEEA-AEEA-γGlu-C20 diacid])AQ[Aib]EFI[dE]YLIEGGPSSGAPPPS-NH2)	0.0645	4.52	0.0356	0.144	348
CC[C@H](C)[C@H](NC(=O)[C@H](CC(C)C)NC(=O)[C@H](Cc1ccc(O)cc1)NC(=O)[C@@H](CCC(=O)O)NC(=O)[C@@H](NC(=O)[C@H](Cc1ccccc1)NC(=O)[C@H](CCC(=O)O)NC(=O)C(C)(C)NC(=O)[C@H](CCC(N)=O)NC(=O)[C@H](C)NC(=O)[C@H](CCCCNC(=O)COCCOCCNC(=O)COCCOCCNC(=O)CC[C@H](NC(=O)CCCCCCCCCCCCCCCCCCC(=O)O)C(=O)O)NC(=O)[C@H](CCC(=O)O)NC(=O)[C@H](CC(=O)O)NC(=O)[C@H](CC(C)C)NC(=O)[C@](C)(CC(C)C)NC(=O)[C@@H](NC(=O)[C@H](CO)NC(=O)[C@H](C)NC(=O)[C@H](CC(=O)O)NC(=O)[C@H](CO)NC(=O)[C@@H](NC(=O)[C@](C)(Cc1ccccc1F)NC(=O)[C@@H](NC(=O)CNC(=O)[C@H](CCC(=O)O)NC(=O)C(C)(C)NC(=O)[C@@H](N)Cc1ccc(O)cc1)[C@@H](C)O)[C@@H](C)O)[C@@H](C)CC)[C@@H](C)CC)C(=O)N[C@@H](CCC(=O)O)C(=O)NCC(=O)NCC(=O)N1CCC[C@H]1C(=O)N[C@@H](CO)C(=O)N[C@@H](CO)C(=O)NCC(=O)N[C@@H](C)C(=O)N1CCC[C@H]1C(=O)N1CCC[C@H]1C(=O)N1CCC[C@H]1C(=O)N[C@@H](CO)C(N)=O [Example 192] (H-Y[Aib]EGT[αMePhe(2-F)]TSDASI[αMeL]LDEK([AEEA-AEEA-γGlu-C20 diacid])AQ[Aib]EFI[dE]YLIEGGPSSGAPPPS-NH2; N-terminus assumed)	0.0615	2.89	0.0289	0.118	> 1110
